{"source": "paper PMC4871512", "about": "“Drug-Based Lead Discovery: The Novel Ablative Antiretroviral Profile of Deferiprone in HIV-1-Infected Cells and in HIV-Infected Treatment-Naive Subjects of a Double-Blind, Placebo-Controlled, Randomized Exploratory Trial” (PLoS ONE, 2016)", "key": {"[1]": {"test_system": "HIV-1 clinical isolate in PBMCs", "assay": "HIV-1 RNA copy number (Amplicor HIV-1 Monitor) in supernatant of isolate-infected PBMC cultures", "format": "cell-based", "settings": "for viral breakthrough during monotherapy: one week to one month", "description": "Cell-free supernatants were used for p24 and HIV-1 RNA measurements. p24 core antigen in the supernatant was quantified by ELISA (Retrotek HIV-1 p24®; ZeptoMetrix Corp.; Buffalo, NY). HIV-1 RNA copy number in the supernatant of PBMC cultures and in plasma of trial subjects enrolled in the exploratory deferiprone trial was determined with a PCR-based and FDA-approved assay (Amplicor HIV-1 Monitor®; Roche Diagnostics Corp.; Indianapolis, IN). For clinical samples, the assay was used per the Standard Specimen Processing Procedure (sensitivity limit 400 copies/ml); for cell culture samples, the assay was used in both the Standard Specimen Processing and the UltraSensitive Specimen Processing Procedure (sensitivity limit 50 copies/ml). If not specified further, the term “log10” designates the amount of HIV-1 RNA in the dimensions [log10 / ml]. The Roche Amplicor HIV-1 DNA Test (Roche Diagnostics Corp.; Indianapolis, IN) was used for detection of HIV-1 DNA with the primer pair SK431/462, which amplifies a highly conserved region of the gag genome of HIV-1 subtype B DNA. Results are shown per the assay’s optical readings of a chromogenic reaction that relates absorbance at 450 nm to the HIV-1 DNA copy number and is calibrated by assay-internal copy controls (A450 < 0.350, HIV-1 DNA absent; A450 ≥ 3.0, HIV-1 DNA present in excess of 20 copies; A450 between 0.350 and 3.0, HIV-1 DNA copy number per copy controls). Apoptotic DNA fragmentation was quantified flow-cytometrically, using a terminal deoxynucleotide transferase dUTP nick end-labeling (TUNEL) assay (APO-BRDU™; Phoenix Flow Systems; San Diego, CA). All experiments and assays were performed at least in duplicate.\nThe antiretroviral activity of deferiprone was tested in primary cultures of PBMCs, infected in vitro with clinical isolate or mock-infected with clinical isolate-identical cell- and virus-free medium as described. Briefly, to approximate the bi-compartmental mode of HIV-1 infection in vivo, which comprises a cell-generative compartment that provides non-infected but HIV-1 susceptible cells, and an HIV-generative compartment in which they become infected, the cultures were replenished as described with freshly obtained uninfected primary cells and medium at regular intervals, assuring identical cell number in both the treated and control cultures by computerized trypan blue exclusion analysis (Vi-CELL™; Beckman Coulter, Miami, FL); deferiprone concentrations were adjusted as indicated. This model allowed for months-long monitoring of HIV-1 parameters in productively infected cultures."}, "[2]": {"assay": "Proof-of-concept trial: safety and tolerability", "description": "Since we were dosing a population with previously untested tolerance for deferiprone, the exploratory trial of this orally administered drug was conducted under uninterrupted medical observation and standardized conditions, e.g. uniform diet to minimize confounding food effects, in a specialized in-patient research unit for Phase I protocols. In-unit supervision lasted for the entire one-week duration of deferiprone ingestion (first stage of protocol S1 in Fig 6), which was intentionally restricted to the oral intake of in total just 17 doses. After discharge from the research unit, outpatient follow-up occurred at 4 weeks and 8 weeks (second stage of protocol S2 in Fig 6). […] Using drug toxicity grading criteria proposed by NIH [97, 98], we defined the following tolerability profile:\nEligible for enrollment were volunteers of both genders, between 18 and 60 years old, healthy or HIV-infected with CD4 count ≥ 300/mm^3, viral load of ≥ 10,000 copies/ml, and absence of active infectious disease; AIDS-defining condition; febrile illness; liver or kidney disease; hypersensitivity to test material; and medication requirement. The protocol involved a screening visit; a pharmacokinetic and antiretroviral study requiring admission to a specialized Phase I research unit for a week of on-drug treatment, with multiple blood draws from a peripheral vein after oral intake of the first deferiprone dose, either 33 mg/kg or 50 mg/kg, and at least three repeat blood draws (first stage of protocol); an off-drug observation period of eight weeks, which comprised at least two repeat visits (second stage of protocol); and an exit visit. Enrollment complied with the applicable standard-of-care specified in the ‘Clinical Guidelines for the Management of HIV & AIDS in Adults and Adolescents’, National Department of Health, Republic of South Africa. Primary parameters included safety and tolerability (e.g. vital signs, laboratory variables, cardiac monitoring by ECG) and antiretroviral activity (e.g. RNA copies of HIV-1). Secondary parameters included pharmacokinetic variables (e.g. peak serum concentration) in serum, drawn from a peripheral vein at fixed times (0, 0.5, 1, 1.5, 2, 3, 4, 6, 9, 12) after the ingestion of the first dose on Day 1 of the study. The concentration of the nonconjugated, chelation-competent form of deferiprone in serum was determined by UV detection at 280 nm, after separation via reversed-phase HPLC under isocratic conditions. The lower limit of deferiprone quantitation was 1.466 μM, or 0.204 μg/ml. HIV-1 RNA was measured as described and used as log10-transformed parameter in all calculations.\n26 consecutive subjects were randomly enrolled in the IRB-approved proof-of-concept trial and gave written informed consent to be studied (Supporting Information, S2 Text); recruitment of trial subjects commenced in November 2006 and follow-up terminated in April 2008. Double-blind enrollment comprised i) 18 HIV-infected, asymptomatic and—according to the applicable standard-of-care [74]–cART-ineligible individuals, who either received placebo (N = 4 [Protocol Group 4]) or deferiprone (Ferriprox®) administered orally every 8 hours in three equal doses under medical supervision, totaling initially either 99 mg/kg/day (N = 7 [Protocol Group 1]) or subsequently 150 mg/kg/day (N = 7 [Protocol Group 3]); and ii) 8 uninfected individuals either on placebo (N = 2 [Protocol Group 5]) or daily deferiprone (N = 6; 150 mg/kg/day [Protocol Group 2]); CD4 cells were quantified before, during, and at the end of the one-week treatment period. […] Visually identical tablets of deferiprone / placebo were administered once on Days 1 and 7, and thrice on Days 2–6 of protocol."}, "[3]": {"settings": "after withdrawal of 100 μM deferiprone"}}, "note": "Entries after “also recorded” stand apart in the source; their conditions may differ.", "data": [{"smiles": "Cc1c(O)c(=O)ccn1C", "note": "[deferiprone, 3-hydroxy-1,2-dimethylpyridin-4-one]", "values": [{"measurement": "HIV-1 RNA decrease below the pre-treatment level of ≥10^6 copies/ml", "setting": "[1]; 100 μM deferiprone, on-drug", "value": "one order of magnitude"}, {"measurement": "HIV-1 RNA new steady state", "setting": "[1]; 100 μM deferiprone, on-drug", "value": "~10^5 copies/ml"}, {"measurement": "viral breakthrough during monotherapy", "setting": "[1]; 100 μM deferiprone, up to 35 days", "value": "did not elicit viral breakthrough; also recorded: did not allow viral breakthrough"}, {"measurement": "viral breakthrough during monotherapy", "setting": "[1]; 200 μM (supra-threshold) deferiprone, up to 35 days / 5 weeks", "value": "did not allow viral breakthrough; also recorded: did not elicit viral breakthrough; also recorded: neither allowed breakthrough"}, {"measurement": "time to reach HIV-1 RNA ≤10^3 copies/ml", "setting": "[1]; 200 μM deferiprone", "value": "2–4 weeks"}, {"measurement": "HIV-1 RNA decrease below its initial range", "setting": "[1]; 200 μM deferiprone (Fig 1B)", "value": "at least three orders of magnitude"}, {"measurement": "HIV-1 RNA level reached on-drug", "setting": "[1]; 200 μM deferiprone, depending on combination of viral isolate and PBMCs", "value": "≤ 10^3 copies/ml"}, {"measurement": "decline of HIV-1 RNA production", "setting": "[1]; 200 μM deferiprone, repeated experiments", "value": 3, "unit": "log"}, {"measurement": "off-drug period in which HIV-1 RNA production failed to resume", "setting": "[1]; after 200 μM deferiprone, replenished with fresh CD4+ lymphocytes (Fig 1)", "value": "at least 10 days"}, {"measurement": "post-treatment period to reacquire the original level of ≥10^6 copies/ml", "setting": "[1]; [3]", "value": "about 5 days"}, {"measurement": "rate of HIV-1 RNA rebound to the pre-treatment range", "setting": "[1]; [3]", "value": "+0.24 log10/ml/day"}, {"measurement": "viral copy number", "setting": "[1]; below 100 μM deferiprone", "value": "only marginally affected"}, {"measurement": "HIV-1 RNA reduction relative to untreated cultures", "setting": "[1]; off-drug after 200 μM deferiprone, apparently stable", "value": "~ 4 log"}, {"measurement": "enrollees who completed the study", "setting": "[2]; 99 mg group", "value": 86, "unit": "%"}, {"measurement": "persons with elevations of transaminases and γ-glutamyl transpeptidase", "setting": "[2]; 99 mg group, N = 7 HIV-infected, end of the treatment week", "value": 2}, {"measurement": "grade of transaminase elevations", "setting": "[2]; 99 mg group, the 2 affected persons", "value": "Grade 3 and Grade 2"}, {"measurement": "grade of γ-glutamyl transpeptidase elevations", "setting": "[2]; 99 mg group, the 2 affected persons, respectively", "value": "Grade 1 and Grade 2"}, {"measurement": "enrollees who completed the study", "setting": "[2]; 150 mg group overall, N = 13", "value": 61, "unit": "%"}, {"measurement": "persons with a rise in serum liver enzymes", "setting": "[2]; 150 mg group, HIV-uninfected", "value": "2 of 6"}, {"measurement": "hematologic adverse event", "setting": "[2]; 150 mg group, Subject 22 (cmax 285 μM), medication discontinued on Day 3", "value": "agranulocytosis (Grade 4 absolute neutrophil count)"}, {"measurement": "grade of γ-glutamyl transpeptidase elevation", "setting": "[2]; 150 mg group, Subject 22 and Subject 24", "value": "Grade 2"}, {"measurement": "persons with a rise in serum liver enzymes", "setting": "[2]; 150 mg group, asymptomatic HIV-infected", "value": "4 of 7"}, {"measurement": "grade of transaminase elevations", "setting": "[2]; 150 mg group, the four affected HIV-infected persons", "value": "three Grade 2 and one Grade 4"}, {"measurement": "protocol completion", "setting": "[2]; 150 mg group, those with HIV infection", "value": 57, "unit": "%"}, {"measurement": "rise in serum liver enzymes, grade", "setting": "[2]; HIV-uninfected persons on 150 mg/day, Subject 9 and Subject 12", "value": "Grade 1 transaminase elevation"}, {"measurement": "spontaneous correction of the neutrophil count", "setting": "[2]; Subject 22", "value": "within two weeks off-drug"}, {"measurement": "spontaneous correction of the liver function abnormality", "setting": "[2]; Subject 22 and Subject 24", "value": "within one week off-drug"}, {"measurement": "heart rate-corrected QT interval on-drug", "setting": "[2]; Subject 317, 150 mg group, Grade 2 QTc prolongation", "value": 491, "unit": "ms"}, {"measurement": "increase of heart rate-corrected QT interval", "setting": "[2]; Subject 317, 150 mg group, baseline 441 ms, first stage, judged likely not causally linked", "value": 50, "unit": "ms"}, {"measurement": "off-drug rate-corrected QT interval", "setting": "[2]; Subject 317, several days after the end of drug intake", "value": "up to 488 ms"}, {"measurement": "effect of dose increase on tolerability", "setting": "[2]; in vivo", "value": "markedly reduced the tolerability"}, {"measurement": "neurological adverse event", "setting": "[2]; one HIV-uninfected person, at 6 and 8 days after the end of deferiprone treatment", "value": "convulsive episodes"}]}]}
